Results on 14 compounds are retold here after PubChem BioAssay (NCI).

Test systems include A498 renal; A549 NSCLC; ACHN renal; EKVX NSCLC; HL-60(TB) leukemia; HT29 colon; M14 melanoma; NCI-H23 lung; T-47D breast; TK-10 renal.
Experiment in all cases: NCI tumour cell line growth inhibition, 48 h

SMILES strings stand for the structures.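 Results reflect a 48-hour exposure of cells in 96-well plates to compound at five concentrations. TGI denotes the concentration required for complete inhibition of growth.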

Turning to `COc1ccc2c(c1)CC[C@@H]1[C@@H]2CC[C@]2(C)/C(=N/OCCN3CCCCC3)CC[C@@H]12`, the TGI in the assay with A498 renal was determined as 23 µM; with A549 NSCLC, 19.8 µM; in the assay with ACHN renal, 21.3 µM; in the assay with EKVX NSCLC, 21.5 µM; in the assay on HL-60(TB) leukemia it was 6.35 µM; in the assay on HT29 colon, 3.67 µM. The TGI is 5.88 µM in the assay with M14 melanoma, 25 µM in the assay on NCI-H23 lung, 19.2 µM with T-47D breast and 14.4 µM in the assay on TK-10 renal.
As to `COC(=O)/C=C1/OC(c2ccccc2)=C(Cl)C1=O`, the TGI was 68.2 µM in the assay with A498 renal; 69.4 µM in the assay on A549 NSCLC; 33 µM in the assay with ACHN renal; 44.5 µM in the assay on EKVX NSCLC; 16.2 µM in the assay on HL-60(TB) leukemia; 48.4 µM with HT29 colon. Moreover, the TGI in the assay with M14 melanoma was 35.2 µM; in the assay with NCI-H23 lung, 39.4 µM; in the assay on T-47D breast, greater than 56.6 µM; in the assay with TK-10 renal, 51.6 µM.
With `Cn1c2ccccc2n2c3nc4ccccc4nc3c(C#N)c12`, the TGI is 9.72 µM with A498 renal; greater than 100 µM with A549 NSCLC; greater than 100 µM in the assay on ACHN renal; greater than 100 µM with EKVX NSCLC; greater than 100 µM in the assay on HL-60(TB) leukemia; greater than 100 µM with HT29 colon. Besides, the TGI in the assay with M14 melanoma, in the assay on NCI-H23 lung, in the assay on T-47D breast and in the assay with TK-10 renal was greater than 100 µM throughout.
As for `Cc1nc2ccccc2n1CCc1nc2ccccc2s1`, the TGI in the assay on A498 renal is greater than 100 µM; in the assay on A549 NSCLC, greater than 100 µM; with ACHN renal it was greater than 100 µM; with EKVX NSCLC, greater than 100 µM; in the assay with HL-60(TB) leukemia, 60.8 µM; with HT29 colon, greater than 100 µM. In addition, the TGI in the assay on M14 melanoma, in the assay on NCI-H23 lung, in the assay with T-47D breast and with TK-10 renal was greater than 100 µM each time.
Consider `COc1ccc(CN=CN/C(C#N)=C(\N)C#N)cc1OC`, for which the TGI in the assay on A498 renal, in the assay with A549 NSCLC, in the assay on ACHN renal, in the assay on EKVX NSCLC, with HL-60(TB) leukemia and in the assay on HT29 colon was greater than 100 µM in each case. Also, the TGI in the assay on M14 melanoma, in the assay with NCI-H23 lung, in the assay on T-47D breast and with TK-10 renal was greater than 100 µM each time.
For the compound `CC[C@H]1C=CCC[C@@]2(C[C@@H]3CC[C@@H]4[C@H](C(=O)OCCCCCCCCCCCCCCCC(=O)N(CCCN)C[C@@H](O)CCN)[C@]5(CCC[C@@H](C)O5)NC(=[N+]34)N2)O1`, the TGI is 1.74 µM with A498 renal; 1.25 µM in the assay with A549 NSCLC; greater than 4.73 µM in the assay on ACHN renal; 2.49 µM in the assay with EKVX NSCLC; 1.36 µM in the assay on HL-60(TB) leukemia; 1.23 µM in the assay with HT29 colon. Besides, the TGI is 0.0599 µM with M14 melanoma, 2.87 µM with NCI-H23 lung, 5.56 µM in the assay with T-47D breast and 4.52 µM with TK-10 renal.
Turning to `CO[P@]1(=O)O[C@@H](c2ccccc2)[C@H](O)[C@]1(O)c1ccccc1`, the TGI in the assay on A498 renal, in the assay on A549 NSCLC, in the assay on ACHN renal, in the assay on EKVX NSCLC, with HL-60(TB) leukemia and with HT29 colon was greater than 100 µM in each case. For the same compound, the TGI in the assay on M14 melanoma, in the assay with NCI-H23 lung, in the assay on T-47D breast and in the assay with TK-10 renal was greater than 100 µM in each case.
For the compound `CSc1n[n+](C)cc(N)c1N`, the TGI with A498 renal, in the assay on A549 NSCLC, with ACHN renal, with EKVX NSCLC, in the assay on HL-60(TB) leukemia and with HT29 colon was greater than 100 µM in each case. Further, the TGI in the assay on M14 melanoma, with NCI-H23 lung, in the assay on T-47D breast and in the assay with TK-10 renal was greater than 100 µM throughout.
With `O=C(O)C(Cc1cccs1)C(=O)O`, the TGI in the assay on A498 renal, in the assay on A549 NSCLC, with ACHN renal, in the assay on EKVX NSCLC, in the assay with HL-60(TB) leukemia and in the assay on HT29 colon was greater than 100 µM in each case. The TGI in the assay with M14 melanoma, with NCI-H23 lung, in the assay on T-47D breast and in the assay with TK-10 renal was greater than 100 µM in each case.
With `COc1cccc(/C=C/C2=NN(c3cccc(S(=O)(=O)O)c3)C3(C2)SCC(=O)N3c2nc3ccccc3s2)c1` (stereo not given), the TGI in the assay with A498 renal, in the assay with A549 NSCLC, with ACHN renal, in the assay with EKVX NSCLC, with HL-60(TB) leukemia and in the assay on HT29 colon was greater than 100 µM throughout. Also, the TGI in the assay with M14 melanoma is greater than 100 µM; in the assay with NCI-H23 lung, greater than 100 µM; in the assay on T-47D breast it was 52.8 µM; in the assay on TK-10 renal, 81.1 µM.
Turning to `Nc1cc(CO)cc(Nc2c3ccccc3nc3occc23)c1`, the TGI with A498 renal was greater than 100 µM; in the assay with A549 NSCLC it was greater than 100 µM; in the assay with ACHN renal, greater than 100 µM; in the assay with EKVX NSCLC, greater than 100 µM; in the assay with HL-60(TB) leukemia, 74.4 µM; in the assay on HT29 colon, 30.5 µM. Moreover, the TGI with M14 melanoma is 93.2 µM; with NCI-H23 lung, 71.7 µM; with T-47D breast, 80.3 µM; with TK-10 renal, greater than 100 µM.
Regarding `CCCCCc1c(CCCC)c(=O)[nH]c2cc(CNCC(OC)OC)ccc12`, the TGI in the assay on A498 renal was determined as 28.9 µM; in the assay with A549 NSCLC, 25.7 µM; in the assay with ACHN renal it was 27.8 µM; in the assay on EKVX NSCLC it was 31.3 µM; with HL-60(TB) leukemia, 43.9 µM; with HT29 colon it was 12.4 µM. In addition, the TGI in the assay on M14 melanoma stood at 8.1 µM; in the assay with NCI-H23 lung it was 32.8 µM; in the assay with T-47D breast it was 31.8 µM; in the assay on TK-10 renal it was 28.7 µM.
As to `c1ccc(N=NNNc2ccc(-c3nc4ccccc4[nH]3)cc2)cc1`, the TGI in the assay with A498 renal was greater than 100 µM; in the assay on A549 NSCLC it was greater than 100 µM; in the assay with ACHN renal it was greater than 100 µM; with EKVX NSCLC, greater than 100 µM; in the assay on HL-60(TB) leukemia, 62.1 µM; in the assay on HT29 colon, 94.7 µM. The TGI with M14 melanoma was greater than 100 µM; in the assay with NCI-H23 lung, greater than 100 µM; in the assay with T-47D breast, 39.1 µM; in the assay on TK-10 renal, greater than 100 µM.
For the compound `CN(C)CCCOC(=O)C(O)(Cc1ccccc1)C1CC1` (stereo not given), the TGI in the assay on A498 renal, with A549 NSCLC, in the assay with ACHN renal, in the assay with EKVX NSCLC, in the assay with HL-60(TB) leukemia and in the assay on HT29 colon was greater than 100 µM throughout. For the same compound, the TGI in the assay with M14 melanoma, in the assay with NCI-H23 lung, in the assay on T-47D breast and with TK-10 renal was greater than 100 µM throughout.
